Results: patent US20230133958A1, “COMPOUNDS USEFUL IN MODULATING EGFR AND PI3K” (Mekanistic Therapeutics LLC, priority 2021, published 2023)

Assay: Metabolic stability in human liver microsomes
Assay type: in vitro ADME
Details: Human Liver Microsome (HLM)
Experimental: Working solution: 5 µL of compound and control stock solution (10 mM in dimethyl sulfoxide (DMSO)) were diluted with 495 µL of acetonitrile (ACN) (intermediate solution concentration: 100 µM, 99% ACN)
NADPH Cofactor Preparation: NADPH powder: β-Nicotinamide adenine dinucleotide phosphate reduced form, tetrasodium salt; NADPH 4 Na. The appropriate amount of NADPH powder was weighed and diluted into a 10 mM MgCl2 solution (working solution concentration: 10 unit/mL; final concentration in reaction system: 1 unit/mL)
Liver Microsomes Preparation: The appropriate concentrations of microsome working solutions were prepared in 100 mM potassium phosphate buffer. Cold (4° C.) acetonitrile (ACN) containing 200 ng/mL tolbutamide and 200 ng/mL labetalol as internal standards (IS) was used as the stop solution
Assay Procedure: Pre-warm empty ‘Incubation’ plates T60 and NCF60 for 10 minutes. Dilute liver microsomes to 0.56 mg/mL in 100 mM phosphate buffer. Transfer 445 µL microsome working solutions (0.56 mg/mL) into pre-warmed ‘Incubation’ plates T60 and NCF60, Then pre-incubate ‘Incubation’ plates T60 and NCF60 for 10 min at 37° C. with constant shaking. […]
The biological stability of the compounds of the invention can be measured by determining its ½ life in the presence microsomes. […]

Structure (SMILES): CS(=O)(=O)Nc1cc(-c2ccc3ncnc(Nc4cccc(Cl)c4F)c3c2)cnc1Cl [Compound 6, N-[2-chloro-5-[4-(3-chloro-2-fluoro-anilino)quinazolin-6-yl]-3-pyridyl] methanesulfonamide]
- half-life at 1 µM: 10 to 100 min
